Here are results for 4 compounds from PMC10053286, “The Importance of Epigallocatechin as a Scaffold for Drug Development against Flaviviruses” (Pharmaceutics, 2023).

Where two headings read alike, the source gives them in different places.

The target in test [1] is T1, DENV2 NS2B/NS3pro (Dengue virus type 2, UniProt P14340). Nature of the test: biochemical.
Test [2] deals with T2, YFV NS2B/NS3pro (Yellow fever virus, UniProt Q1X881). The experiment in a line: biochemical.
Test [3] has as its target T3, WNV NS2B/NS3pro (West Nile virus, UniProt P06935). Nature of the test: biochemical. Format: biochemical.
Test [4] concerns the target T4, ZIKV NS2B/NS3pro (Zika virus, UniProt A0A024B7W1). Nature of the test: biochemical.
Test [5] addresses T1, DENV2 NS2B/NS3pro. The experiment in a line: Surface plasmon resonance dissociation constant. Format: binding.
The target of test [6] is T2, YFV NS2B/NS3pro. The experiment in a line: biochemical. Format: binding.
The target of test [7] is T3, WNV NS2B/NS3pro. The experiment in a line: Surface plasmon resonance dissociation constant. Format: binding. (In SPR one partner is held on a chip, and binding of the other changes the refractive index at the surface.)
Test [8] concerns the target T4, ZIKV NS2B/NS3pro. The experiment in a line: Surface plasmon resonance dissociation constant. Format: binding.
In test [9] the target is T1, DENV2 NS2B/NS3pro. Format: binding.
The target of test [10] is T2, YFV NS2B/NS3pro. Format: binding.
In test [11] the target is T4, ZIKV NS2B/NS3pro. Format: binding.
Test [12] deals with T4, ZIKV NS2B/NS3pro. As to conditions: Li and collaborators; cited from earlier work.

T4 sequence (A0A024B7W1 1421-1467): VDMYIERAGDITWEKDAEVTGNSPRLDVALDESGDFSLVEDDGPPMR
T4 sequence (A0A024B7W1 1503-1672): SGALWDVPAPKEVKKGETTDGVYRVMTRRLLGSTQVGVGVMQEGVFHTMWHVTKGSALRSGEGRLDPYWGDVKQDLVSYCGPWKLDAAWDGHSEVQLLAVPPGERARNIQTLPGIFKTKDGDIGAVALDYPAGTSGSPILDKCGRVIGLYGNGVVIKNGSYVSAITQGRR
T3 sequence (P06935 1420-1465): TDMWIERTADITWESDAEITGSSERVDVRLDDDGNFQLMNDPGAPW
T3 sequence (P06935 1502-1671): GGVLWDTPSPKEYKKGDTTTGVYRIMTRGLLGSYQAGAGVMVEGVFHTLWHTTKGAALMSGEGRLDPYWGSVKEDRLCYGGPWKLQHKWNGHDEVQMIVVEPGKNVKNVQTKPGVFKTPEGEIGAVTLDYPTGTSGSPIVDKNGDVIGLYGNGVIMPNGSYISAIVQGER
T2 sequence (Q1X881 1402-1449 limits assumed): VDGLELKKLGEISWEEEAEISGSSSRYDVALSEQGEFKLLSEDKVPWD
T2 sequence (Q1X881 1491-1660 limits assumed): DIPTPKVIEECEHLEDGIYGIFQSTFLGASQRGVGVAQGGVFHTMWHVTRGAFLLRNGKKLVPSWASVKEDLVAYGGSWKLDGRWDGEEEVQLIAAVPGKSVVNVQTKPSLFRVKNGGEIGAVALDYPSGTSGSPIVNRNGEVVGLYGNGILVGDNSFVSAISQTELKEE
T1 sequence (P14340 1394-1440 limits assumed): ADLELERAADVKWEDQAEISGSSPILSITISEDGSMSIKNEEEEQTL
T1 sequence (P14340 1476-1660 limits assumed): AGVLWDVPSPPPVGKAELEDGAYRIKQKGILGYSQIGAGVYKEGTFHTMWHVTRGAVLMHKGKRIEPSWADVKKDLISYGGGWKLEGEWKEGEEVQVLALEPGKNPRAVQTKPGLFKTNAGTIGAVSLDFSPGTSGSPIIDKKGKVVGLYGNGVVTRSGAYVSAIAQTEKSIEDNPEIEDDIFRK

As a reminder, the IC50 is the midpoint of a concentration-inhibition curve. Broadly, the Kd is a measure of binding affinity in units of concentration. A high value points to weaker binding. In the case of `CC(=O)Oc1cc(OC(C)=O)c2c(c1)O[C@H](c1cc(OC(C)=O)c(OC(C)=O)c(OC(C)=O)c1)[C@H](OC(=O)c1cc(OC(C)=O)c(OC(C)=O)c(OC(C)=O)c1)C2` [AcEGCG, EGCG octaacetate], the IC50 in test [1] was found to be 39.8 ± 2.5 µM; in test [2] it was 39.1 ± 2.2 µM; in test [3], 83.4 ± 10.4 µM; in [4], 102 ± 2.6 µM. In addition, the “Inhibition Mode” value in test [1], in [2], in test [3] and in test [4] was “Noncompetitive” in each case. The Kd in test [5] was 2400 nM; in test [6], 470 nM; in test [7], 980 nM; in test [8], 4800 nM. In addition, the “Trp emission band after titration of the molecule (excitation shift)” value in test [9], in test [10] and in test [11] was 360 nm in each case.
As for `O=C(O[C@@H]1Cc2c(O)cc(O)cc2O[C@@H]1c1ccc(O)c(O)c1)c1cc(O)c(O)c(O)c1` [ECG, epicatechin gallate], the IC50 in test [12] was 89 µM.
On to `Oc1cc(O)c2c(c1)O[C@H](c1cc(O)c(O)c(O)c1)[C@H](O)C2` [EGC, epigallocatechin], for which the IC50 in [1] came to 145 ± 3 µM; in [2] it was 19 ± 1.9 µM; in test [3], 17.3 ± 2.5 µM; in test [4], 8.9 ± 1.2 µM. Besides, the “Inhibition Mode” value in test [1], in test [2], in test [3] and in test [4] was “Competitive” each time. Besides, the Kd in test [5] was determined as 30 nM; in test [6] it was 270 nM; in [7], 220 nM; in [8] it was 20 nM. In addition, the “Trp emission band after titration of the molecule (excitation shift)” value in [9], in test [10] and in test [11] was “no excitation shift” throughout.
Regarding `O=C(O[C@@H]1Cc2c(O)cc(O)cc2O[C@@H]1c1cc(O)c(O)c(O)c1)c1cc(O)c(O)c(O)c1` [EGCG, Epigallocatechin gallate], the IC50 in test [1] was 6.3 ± 1 µM; in test [2], 8 ± 1.4 µM; in test [4], 4.5 ± 0.6 µM. Moreover, the “Inhibition Mode” value in test [1], in [2], in [3] and in [4] was “Noncompetitive” each time. Further, the Kd in [5] is 70 nM; in [6] it was 60 nM; in [8] it was 90 nM.
